Paper PMC6332359, “Insecticidal and Nematicidal Activities of Novel Mimosine Derivatives” (Molecules, 2015)
“And” between values parts separate entries of the source, which are not always exact repeats. Equal entries are not always repeated. Where two headings read alike, the source gives them in different places.

How the values were obtained:
termites [1] = assay: Topical assay against termites (acute toxicity); type: in vivo; details: for LD50 against termites by topical application: worker termites, mortality after 48 h, mean ± SE of four replications; for Insecticidal activity relative to mimosine: higher than mimosine, from Table 1 LD50
Experimental: An acute toxicity bioassay was performed by topical application to worker termites. A series of seven different doses (0.25, 0.5, 1.5, 2.5, 7.5, 12.5, and 25 μg/termite) was prepared in ethanol solution for each tested sample. Aliquots (0.5 μL) of diluted samples were applied topically to the abdomens of worker termites. Controls were treated with 0.5 μL ethanol only. Termites were transferred into petri dishes (4.2-cm diameter) lined with filter paper and kept in an incubator at 23–25 °C. A few drops of distilled water were supplied daily to the bottom edge of each dish to maintain moisture during the experiment. Four replicates of 20 termites each were used per treatment. Fenitrothion and rotenone were used as positive controls. Mortality of insects was evaluated after 48 h treatment. […] LD50 values were calculated by probit analysis using Graphpad Prism 6.01 (GraphPad, La Jolla, CA, USA).

Caenorhabditis elegans = assay: Nematicidal activity assay, 96-well microplate method; type: in vivo
Experimental: The nematicidal activity assay was conducted according to previously described procedures with minor modifications. The nematode Caenorhabditis elegans was cultivated on nematode growth medium (NGM) [3 g NaCl, 15 g agar, 2.5 g polypeptone, 136.1 g KH2OP4, 17.9 g KOH, 1 mL 1 M MgSO4, 1 mL 1 M CaCl2, 1 mL cholesterol (5 mg/mL), and 500 μL ampicillin (100 μg/mL)] plate covered with Escherichia coli strain OP50. The ampicillin-resistant OP50 was used as a feed source to prevent cross-contamination of the nematode culture. The NGM plates contained high densities of worms after 4 days incubation at 20 °C. For preparation of synchronous worm culture, worms were rinsed from the agar plate with S-basal buffer (5.85 g NaCl, 1 g K2HPO4, 6 g KH2PO4, and 1 mL cholesterol [5 mg/mL ethanol]/L), washed twice with S-basal buffer, and added to household bleach/10 N NaOH solution. The supernatant was shaken for 10–15 min, washed three times by centrifugation for 1 min at 3000 rpm, and then resuspended in S-basal buffer. One hundred microliters of worm/OP50 (1.2 × 10^9 bacteria/mL) solution was transferred into each well of a 96-well plate, and 20 μL sample stock solution was added to give final concentrations 25, 50, 100, 250, and 500 μM. The plate was shaken thoroughly for 2–3 min and incubated at 20 °C. Water was used as a negative control. The experiment was performed using four replicates of each treatment and was repeated two times. Dead and active nematodes were recorded after 48 h treatment. Nematode mortality rate was calculated as a percentage in comparison with the control group.

termites [2] = assay: No-choice contact assay against termites; type: in vivo; details: no-choice contact method, seven days treatment
Experimental: The no-choice bioassay method as described by Tawata et al. was used to evaluate insecticidal activity. […] Filter paper treated with ethanol and acetone was used as the control. After removing the solvent from treated filter paper by air drying at ambient temperature for 24 h, 20 termites were placed onto each paper. The dishes were covered and placed in incubator at ±23 °C. A few drops of distilled water were supplied daily to the bottom edge of each petri dish to maintain moisture during the experiment. The experiment was performed using four replicates of each treatment and was repeated two times. Mortality was evaluated after seven days treatment. […] Insect mortality rate was calculated as a percentage in comparison with the control group. Rotenone and fenitrothion were used as positive controls.

[3] = target: acetylcholinesterase (AChE) from termite whole bodies; assay: Acetylcholinesterase (AChE) inhibition, modified Ellman's method; type: biochemical, termites; details: crude enzyme from termite whole bodies; for IC50: pH 8.0, 25 °C, read-out: IC50 against AChE
Experimental: Whole bodies of termites (20 mg) were homogenized in 1 mL of 0.1 M phosphate buffer (pH 8.0), and the homogenate was centrifuged at 12,000 rpm for 20 min. The supernatant was used as the enzyme source. All procedural steps for preparing the crude enzyme were performed at 4 °C [26]. The AChE activity was measured using the modified Ellman’s method. Twenty-five microliters of sample was transferred into each well of a 96-well microplate containing 125 μL 0.1 M phosphate buffer (pH 8.0), and 30 μL of the enzyme solution was added to each well. The mixture was incubated for 10 min at 25 °C, after which 50 μL of 5,5′-dithiobis-(2-nitrobenzoic acid) (final concentration 0.4 mM) and 25 μL of acetylthiocholine iodide (final concentration 1 mM) were added. The control was treated by adding 25 μL water. Enzyme activity was measured for 20 min at 412 nm. The AChE inhibition assay was performed using four replicates of each treatment and was repeated two times. The inhibition rate of AChE activity was calculated as a percentage as follows: Inhibition (%) = (Ao − AE)/Ao × 100(1) where Ao is the absorbance of the control, and AE is the absorbance of the tested sample.

[4] = read-out: Nematicidal activity IC50, C. elegans, 48 h treatment, 20 °C
[5] = Caenorhabditis elegans, C. elegans, 48 h treatment, 20 °C, read-out: Nematicidal activity IC50

SMILES | LD50 against termites by topical application (termites [1]) | IC50 (Caenorhabditis elegans; [4]) | Mortality (%) (termites [2]; 50 μg/mL) | Mortality (%) (termites [2]; 100 μg/mL) | Mortality (%) (termites [2]; 250 μg/mL) | IC50 [3] | IC50 (Caenorhabditis elegans; Caenorhabditis elegans, 48 h, read-out: Nematicidal activity IC50, C. elegans, 48 h treatment, 20 °C) | Insecticidal activity relative to mimosine (termites [1]) | IC50 (Caenorhabditis elegans; [5]) | Mortality (%) (termites [2]; 5 μg/mL) | Mortality (%) (termites [2]; 10 μg/mL) | Mortality (%) (termites [2]; 15 μg/mL) | AChE inhibitory activity (in words) [3]
COP1(=S)N[C@@H](Cn2ccc(=O)c(O)c2)CO1 (stereo partly drawn) [Compound 1a, 3-Hydroxy-1-(((4S)-2-methoxy-2-sulfido-1,3,2-oxazaphospholidin-4-yl)methyl)pyridin-4(1H)-one] | 0.5 μg/insect and 0.5 ± 0.1 fg μg/insect | 31.8 µM | 52%–62% and 62.5 ± 1.8 a % | 71%–88% and 88.8 ± 0.9 a % | 90.6 ± 1.3 a % | 95.9 µM |  |  |  |  |  |  | 
CCOP1(=S)N[C@@H](Cn2ccc(=O)c(O)c2)CO1 (stereo partly drawn) [Compound 1b, 1-(((4S)-2-Ethoxy-2-sulfido-1,3,2-oxazaphospholidin-4-yl)methyl)-3-hydroxypyridin-4(1H)-one] | 0.7 μg/insect and 0.7 ± 0.1 ef μg/insect | 50.2 µM | 52%–62% and 52.5 ± 3.5 ab % | 71%–88% and 71.9 ± 1.3 b % | 84.4 ± 2.2 ab % | 104 µM |  |  |  |  |  |  | 
CCCOP1(=S)N[C@@H](Cn2ccc(=O)c(O)c2)CO1 (stereo partly drawn) [Compound 1c, 3-Hydroxy-1-(((4S)-2-propoxy-2-sulfido-1,3,2-oxazaphospholidin-4-yl)methyl)pyridin-4(1H)-one] | 0.8 ± 0.1 ef μg/insect |  | 45.6 ± 0.4 bc % | 59.4 ± 1.3 cd % | 77.5 ± 0.9 b % |  | 116 µM |  |  |  |  |  | 
COP1(=S)N[C@@H](Cn2ccc(=O)c(O)c2)CO1 (stereo partly drawn) [Compound 2a, 3-Hydroxy-1-(((4S)-2-methoxy-2-sulfido-1,3,2-oxazaphospholidin-4-yl)methyl)pyridin-4(1H)-one] | 1.2 ± 0.2 de μg/insect | 252 µM | 48.8 ± 2.5 bc % | 70.6 ± 0.6 b % | 82.5 ± 1.3 ab % |  |  |  |  |  |  |  | 
CCOP1(=S)N[C@@H](Cn2ccc(=O)c(O)c2)CO1 (stereo partly drawn) [Compound 2b, 1-(((4S)-2-ethoxy-2-sulfido-1,3,2-oxazaphospholidin-4-yl)methyl)-3-hydroxypyridin-4(1H)-one] | 2.1 ± 0.4 c μg/insect | 187 µM | 42.5 ± 2.5 bcd % | 52.5 ± 2.5 de % | 63.8 ± 0.0 c % |  |  |  |  |  |  |  | 
CCCOP1(=S)N[C@@H](Cn2ccc(=O)c(O)c2)CO1 (stereo partly drawn) [Compound 2c, 3-Hydroxy-1-(((4S)-2-propoxy-2-sulfido-1,3,2-oxazaphospholidin-4-yl)methyl)pyridin-4(1H)-one] | 3.1 ± 0.5 b μg/insect | 218 µM | 29.4 ± 1.9 e % | 44.4 ± 1.9 e % | 52.5 ± 3.8 d % |  |  |  |  |  |  |  | 
[2H]C([2H])(O)[C@@H](N)Cn1ccc(=O)c(O)c1 [D-mimosinol, deuterated mimosinol] | 1.8 ± 0.3 d μg/insect |  | 33.1 ± 1.9 de % | 53.8 ± 3.8 de % | 60.6 ± 0.6 cd % |  |  | > 30 times | 390 µM |  |  |  | 
COP(=S)(OC)Oc1ccc([N+](=O)[O-])c(C)c1 [Fenitrothion, reference compound] | 0.025 ± 0.0 g μg/insect |  |  |  |  | 182 µM |  |  |  | 26.9 ± 1.3% | 69.4 ± 0.6% | 83.8 ± 1.9% | 
NC(Cn1ccc(=O)c(O)c1)C(=O)O (stereo not drawn) [Mimosine, β-[N-(3-hydroxy-4-oxypyridyl)]-α-aminopropionic acid] | 54.1 ± 5.9 a μg/insect |  | 2.5 ± 1.1 f % | 7.5 ± 1.0 f % | 9.1 ± 2.0 e % | 1530 µM |  |  | 16.8 µM |  |  |  | not active
N[C@H](CO)Cn1ccc(=O)c(O)c1 [Mimosinol, mimosinol] | 1.2 ± 0.2 de μg/insect |  | 38.1 ± 1.3 cde % | 52.5 ± 2.7 de % | 68.5 ± 0.6 c % |  |  | > 30 times | 376 µM |  |  |  | 
C=C(C)[C@H]1Cc2c(ccc3c2O[C@@H]2COc4cc(OC)c(OC)cc4[C@@H]2C3=O)O1 [Rotenone, rotenone, reference compound] | 0.8 ± 0.2 ef μg/insect |  | 48.8 ± 0.9 bc % | 68.1 ± 1.3 bc % | 80.0 ± 0.9 b % |  |  |  |  |  |  |  | 
O=c1cc(CO)occ1O [kojic acid] |  |  |  |  |  | 5480 µM |  |  | 328 µM |  |  |  | not active
